Patent US20230129935A1, “SYSTEM, PRODUCT AND METHOD FOR MAINTAINING THE VAGINAL MICROBIOME” (VAGINAL BIOME SCIENCE, INC., priority 2021, published 2023)

How the values were obtained:
[1] = tested on: HIV; experiment: Killing of HIV and other pathogens by lubricant acidified with lactic acid; settings: vaginal lubricant including substantially racemic lactic acid, matched to vaginal acidity
[2] = tested on: herpes simplex virus (HSV-2); settings: after a single exposure; cited from earlier work

| Compound | killing of HIV and many other pathogens [1] | susceptibility to herpes simplex virus (HSV-2) [2] |
| --- | --- | --- |
| CC(O)C(=O)O (racemic) [lactic acid] | kills HIV and many other pathogens | – |
| polyethylene glycol [polyethylene glycol (PEG-8)] | – | markedly increased susceptibility |
